Test: i.v. administration of 0.5 mg MENT (reference for bioavailability)
Format: in vivo
Details: after i.v. admin. of 0.5 mg MENT

SMILES: C[C@@H]1CC2=CC(=O)CC[C@@H]2[C@H]2CC[C@]3(C)[C@@H](O)CC[C@H]3[C@@H]21 [MENT, 7α-methyl-19-nortestosterone]
- AUC(0-tlast) geomean dose-normalized: 4.98 ng·h/mL

Source: US9763960B2, “Wafer comprising steroid hormones” (LTS Lohmann Theraple-Systeme AG, priority 2005, dated 2017)
